# Assay results taken from US9828366B2, “Bicyclic derivatives and pharmaceutical composition including the same” (HANMI PHARM. CO., LTD., priority 2014, dated 2017).
# Key:
# hSGLT2 = target: T1, hSGLT2 (Homo sapiens, UniProt P31639); assay: [14C]-AMG uptake assay in HEK293-hSGLT2 cells; assay type: cell-based; details: HEK293-hSGLT2 stable cell line
# T1 construct: FLAG; expressed in transfected cells
# T1 sequence (P31639 1-672): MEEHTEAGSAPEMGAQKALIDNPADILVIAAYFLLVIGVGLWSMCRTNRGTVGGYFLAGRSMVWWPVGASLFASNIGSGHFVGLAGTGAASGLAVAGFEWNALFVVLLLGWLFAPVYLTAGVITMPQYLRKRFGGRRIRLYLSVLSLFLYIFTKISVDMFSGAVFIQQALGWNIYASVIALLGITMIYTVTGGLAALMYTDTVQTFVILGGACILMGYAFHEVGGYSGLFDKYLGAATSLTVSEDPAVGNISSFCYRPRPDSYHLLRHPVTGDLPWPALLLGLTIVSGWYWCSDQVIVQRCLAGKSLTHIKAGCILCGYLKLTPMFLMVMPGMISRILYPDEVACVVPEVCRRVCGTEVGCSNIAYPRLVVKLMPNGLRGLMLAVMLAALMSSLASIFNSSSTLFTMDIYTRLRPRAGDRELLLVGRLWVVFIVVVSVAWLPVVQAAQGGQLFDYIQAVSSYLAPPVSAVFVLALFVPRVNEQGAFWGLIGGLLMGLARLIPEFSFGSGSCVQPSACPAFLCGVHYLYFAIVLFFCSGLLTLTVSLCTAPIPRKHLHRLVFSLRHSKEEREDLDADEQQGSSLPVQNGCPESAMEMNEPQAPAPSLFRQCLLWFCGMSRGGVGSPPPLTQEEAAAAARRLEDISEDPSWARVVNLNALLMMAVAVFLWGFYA
# Description: (§1) For the evaluation of the pharmaceutical efficacies of the compounds as a SGLT inhibitor, a glucose uptake assay was conducted by using stable cell lines, i.e., HEK293-hSGLT1 and HEK293-hSGLT2. The stable cell lines were prepared by transfection of human embryonic kidney 293 (HEK293) cell line with pcDNA3.1(+)-FLAG-hSGLT1 and pcDNA3.1(+)-FLAG-hSGLT2 vectors.
# (§2) The cells were seeded in a 96-well poly-D-lysine (PDL) coated plate at a density of 2.5×10^4 cells/well and cultured in a cell culture incubator for one day at 37° C., 5% CO2. Then, the cells were washed once with 1× assay buffer (140 mM NaCl, 5 mM KCl, 2.5 mM CaCl2, 1 mM MgSO4.7H2O, 1 mM KH2PO4, 10 mM HEPES) and pre-incubated in a cell culture incubator for 30 minutes with 1× assay buffer at 37° C., 5% CO2. Each compound obtained in the Examples was 10-fold diluted with 1× assay buffer. The diluted compounds were added to the plate at various concentrations and then cultured in a cell culture incubator for 1 hour at 37° C., 5% CO2.
# (§3) Radioactive [^14C]-alpha-methyl-D-glucopyranoside (Cat# NEC659250UC, Perkin Elmer) was diluted with 1× assay buffer at a concentration of 0.2 μCi. The diluted [^14C]-AMG was added to all the wells in plate in the same amount, and the cells were cultured in a cell culture incubator for 2 hours at 37° C., 5% CO2. The cells were washed three times with cold Dulbecco's Phosphate buffer saline (DPBS) and then lysed with 0.2 N NaOH for 10 minutes at room temperature with shaking. After addition of MicroScint 20 fluid, the cells were allowed to shake for 15 minutes at room temperature, and then the activity of [^14C]AMG was quantified on a β-scintillation counter. IC50 of each of the compounds was determined by GraphPad Prism 4.0 software.
# hSGLT1 = target: T2, hSGLT1 (Homo sapiens, UniProt P13866); assay: [14C]-AMG uptake assay in HEK293-hSGLT1 cells; assay type: cell-based; details: HEK293-hSGLT1 stable cell line
# T2 construct: FLAG; expressed in transfected cells
# T2 sequence (P13866 1-664): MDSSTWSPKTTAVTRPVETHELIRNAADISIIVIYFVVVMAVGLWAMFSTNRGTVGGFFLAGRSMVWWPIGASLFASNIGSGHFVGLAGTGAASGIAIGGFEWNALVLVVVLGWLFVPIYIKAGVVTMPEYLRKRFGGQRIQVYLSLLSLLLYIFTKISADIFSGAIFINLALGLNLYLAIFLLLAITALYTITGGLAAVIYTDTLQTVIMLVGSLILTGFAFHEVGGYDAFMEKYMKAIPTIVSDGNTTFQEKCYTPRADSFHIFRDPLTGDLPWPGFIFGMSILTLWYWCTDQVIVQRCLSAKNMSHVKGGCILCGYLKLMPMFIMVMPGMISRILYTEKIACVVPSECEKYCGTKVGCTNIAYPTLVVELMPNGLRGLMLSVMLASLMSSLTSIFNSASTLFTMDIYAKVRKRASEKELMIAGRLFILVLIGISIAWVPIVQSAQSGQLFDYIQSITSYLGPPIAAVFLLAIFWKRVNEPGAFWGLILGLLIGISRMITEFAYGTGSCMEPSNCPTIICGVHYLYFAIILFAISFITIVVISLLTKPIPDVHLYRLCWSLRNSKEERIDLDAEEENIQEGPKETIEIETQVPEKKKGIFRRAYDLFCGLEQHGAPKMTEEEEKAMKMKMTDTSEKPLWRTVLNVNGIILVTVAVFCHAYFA
# Description: as §1, §2, §3
# C57BL/6 male mice = assay: Urinary glucose excretion test (UGE test); assay type: in vivo; details: 3 mg/kg oral (Examples 13 to 38), 2 g/kg glucose after 30 minutes, urine collected for 24 hours
# Description: The pharmaceutical efficacies of the compounds prepared in the Examples were investigated by a urinary glucose excretion test using C57BL/6 male mice (8-week-old, prepared and supplied from Orient Chemical Co. Ltd.).
# Two mice were used in each group. The mice were fasted for 16 hours, and the compound of each of the Examples [10 mg/kg of the compound of Examples 1 to 12; and 3 mg/kg of the compound of Examples 13 to 38] was dissolved in a vehicle [a mixed solution of 5% 1-methyl-2-pyrrolidinone, 20% PEG, and 75% 20 mM sodium diphosphate], and orally administered to the mice. After 30 minutes, 2 g/kg of glucose was orally administered to the mice in all the groups. Thereafter, the mice were immediately put into a metabolic cage, and urine was collected for 24 hours. The mice were freely fed an hour after the administration of glucose.
# The results obtained from the test, that is, the results obtained by measuring urinary glucose excretion in the C57BL/6 male mice according to the compounds of the Examples, are listed in Table 5.
IC50 (hSGLT2) [nM],IC50 (hSGLT1) [nM],Structure (SMILES),UGE (C57BL/6 male mice) [mg/20 g/24 hr]
4,31.9,"COc1ccc(Cc2cc([C@@H]3O[C@H](CO)[C@@H](O)[C@H](O)[C@H]3O)cc3c2CCC3)cc1 [Example 14, (2R,3S,4R,5R,6S)-2-(hydroxymethyl)-6-(7-(4-methoxybenzyl)-2,3-dihydro-1H-inden-5-yl)tetrahydro-2H-pyran-3,4,5-triol]",–
9.6,7.7,"Cc1ccc(Cc2cc([C@@H]3O[C@H](CO)[C@@H](O)[C@H](O)[C@H]3O)cc3c2CCC3)cc1 [Example 15, (2R,3S,4R,5R,6S)-2-(hydroxymethyl)-6-(7-(4-methylbenzyl)-2,3-dihydro-1H-inden-5-yl)tetrahydro-2H-pyran-3,4,5-triol]",8.1
5.6,54.6,"CCc1ccc(Cc2cc([C@@H]3O[C@H](CO)[C@@H](O)[C@H](O)[C@H]3O)cc3c2CCC3)cc1 [Example 16, (2S,3R,4R,5S,6R)-2-(7-(4-ethylbenzyl)-2,3-dihydro-1H-inden-5-yl)-6-(hydroxymethyl)tetrahydro-2H-pyran-3,4,5-triol]",16.4
9.2,511,"OC[C@H]1O[C@@H](c2cc3c(c(Cc4ccc(OC(F)(F)F)cc4)c2)CCC3)[C@H](O)[C@@H](O)[C@@H]1O [Example 22, (2R,3S,4R,5R,6S)-2-(hydroxymethyl)-6-(7-(4-(trifluoromethoxy)benzyl)-2,3-dihydro-1H-inden-5-yl)tetrahydro-2H-pyran-3,4,5-triol]",9.6
6.8,267,"OC[C@H]1O[C@@H](c2cc3c(c(Cc4ccc(C(F)(F)F)cc4)c2)CCC3)[C@H](O)[C@@H](O)[C@@H]1O [Example 24, (2R,3S,4R,5R,6S)-2-(hydroxymethyl)-6-(7-(4-(trifluoromethyl)benzyl)-2,3-dihydro-1H-inden-5-yl)tetrahydro-2H-pyran-3,4,5-triol]",–
3.5,35.2,"OC[C@H]1O[C@@H](c2cc3c(c(Cc4ccc5c(c4)OCO5)c2)CCC3)[C@H](O)[C@@H](O)[C@@H]1O [Example 29, (2S,3R,4R,5S,6R)-2-(7-(benzo[d][1,3]dioxol-5-ylmethyl)-2,3-dihydro-1H-inden-5-yl)-6-(hydroxymethyl)tetrahydro-2H-pyran-3,4,5-triol]",–
3.5,55.2,"OC[C@H]1O[C@@H](c2cc3c(c(Cc4ccc5c(c4)OCCO5)c2)CCC3)[C@H](O)[C@@H](O)[C@@H]1O [Example 30, (2S,3R,4R,5S,6R)-2-(7-((2,3-dihydrobenzo[1,4]dioxin-6-yl)methyl)-2,3-dihydro-1H-inden-5-yl)-6-(hydroxymethyl)tetrahydro-2H-pyran-3,4,5-triol]",7.2
5.8,178,"CC(C)(C)c1ccc(Cc2cc([C@@H]3O[C@H](CO)[C@@H](O)[C@H](O)[C@H]3O)cc3c2CCC3)cc1 [Example 31, (2S,3R,4R,5S,6R)-2-(7-(4-(tert-butyl)benzyl)-2,3-dihydro-1H-inden-5-yl)-6-(hydroxymethyl)tetrahydro-2H-pyran-3,4,5-triol]",–
4.5,63.2,"Cc1ccc(Cc2cc([C@@H]3O[C@H](CO)[C@@H](O)[C@H](O)[C@H]3O)cc3c2CCC3)cc1C [Example 32, (2S,3R,4R,5S,6R)-2-(7-(3,4-dimethylbenzyl)-2,3-dihydro-1H-inden-5-yl)-6-(hydroxymethyl)tetrahydro-2H-pyran-3,4,5-triol]",–
13.5,553,"OC[C@H]1O[C@@H](c2cc3c(c(Cc4ccc(OCC(F)(F)F)cc4)c2)CCC3)[C@H](O)[C@@H](O)[C@@H]1O [Example 34, (2R,3S,4R,5R,6S)-2-(hydroxymethyl)-6-(7-(4-(2,2,2-trifluoroethoxy)benzyl)-2,3-dihydro-1H-inden-5-yl)tetrahydro-2H-pyran-3,4,5-triol]",–
9,84.9,"OC[C@H]1O[C@@H](c2cc3c(c(Cc4ccc(-c5ccc(F)cc5)s4)c2)CCC3)[C@H](O)[C@@H](O)[C@@H]1O [Example 36, (2S,3R,4R,5S,6R)-2-(7-((5-(4-fluorophenyl)thiophen-2-yl)methyl)-2,3-dihydro-1H-inden-5-yl)-6-(hydroxymethyl)tetrahydro-2H-pyran-3,4,5-triol]",–
9,19.8,"OC[C@H]1O[C@@H](c2cc3c(c(Cc4cc5ccccc5s4)c2)CCC3)[C@H](O)[C@@H](O)[C@@H]1O [Example 37, (2S,3R,4R,5S,6R)-2-(7-(benzo[b]thiophen-2-ylmethyl)-2,3-dihydro-1H-inden-5-yl)-6-(hydroxymethyl)tetrahydro-2H-pyran-3,4,5-triol]",14.5
5.8,24.9,"OC[C@H]1O[C@@H](c2cc3c(c(Cc4ccc(C5CC5)cc4)c2)CCC3)[C@H](O)[C@@H](O)[C@@H]1O [Example 38, (2S,3R,4R,5S,6R)-2-(7-(4-cyclopropylbenzyl)-2,3-dihydro-1H-inden-5-yl)-6-(hydroxymethyl)tetrahydro-2H-pyran-3,4,5-triol]",14.8
28.8,210,"OC[C@H]1O[C@@H](c2cc3c(c(Cc4ccc(Cl)cc4)c2)CCC3)[C@H](O)[C@@H](O)[C@@H]1O [Example 40, (2S,3R,4R,5S,6R)-2-(7-(4-chlorobenzyl)-2,3-dihydro-1H-inden-5-yl)-6-(hydroxymethyl)tetrahydro-2H-pyran-3,4,5-triol]",–
